One molecule from BindingDB's records for doi:10.1021/jm5002919 (Takeda Pharmaceutical, 2014) can be followed below.

The target of this assay is G-protein coupled receptor 52 (Homo sapiens, UniProt Q9Y2T5). Description: Agonist activity at human GPR52 expressed in CHO cells assessed as cAMP production after 30 mins by Alphascreen assay. (cAMP levels reflect the balance of adenylyl cyclase and phosphodiesterase activity.)
Sequence of G-protein coupled receptor 52 (Q9Y2T5 whole entry): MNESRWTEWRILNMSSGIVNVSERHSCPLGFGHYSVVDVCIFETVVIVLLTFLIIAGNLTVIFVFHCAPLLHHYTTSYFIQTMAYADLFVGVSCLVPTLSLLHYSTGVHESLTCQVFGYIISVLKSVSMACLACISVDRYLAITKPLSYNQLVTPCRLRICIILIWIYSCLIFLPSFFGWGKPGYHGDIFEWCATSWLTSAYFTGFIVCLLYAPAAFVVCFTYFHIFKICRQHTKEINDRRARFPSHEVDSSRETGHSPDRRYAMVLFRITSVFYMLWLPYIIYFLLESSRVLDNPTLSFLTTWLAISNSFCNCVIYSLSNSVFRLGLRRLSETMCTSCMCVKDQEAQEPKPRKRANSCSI

As a reminder, the EC50 is the concentration that produces a half-maximal response. As for `COc1ccc(-c2ccnc(NCCc3ccc(OC)c(OC)c3C)n2)cc1`, the EC50 was above 10 µM.
